The target in one data set is chymotrypsin (Bos taurus, UniProt P00766). Put plainly: Protease inhibition assay, chymotrypsin. The format is biochemical. Particulars: substrate SGGPNA; Tris buffer pH 7.5; 37 °C; 5 min pre-incubation; kinetic absorbance 405 nm over 30 min; dilutions 0.011 µM to 45.5 µM; 4-parameter logistic fit. As to the method: A sigmoidal curve of the enzyme inhibition versus the concentration of the inhibitor was observed that was fit to the 4-parameters logistic model. Assays were performed in 96-well plate format.
The assay was performed in a Tris buffer (0.6 g TRIS HCl/100 mL H2O, pH 7.5). The enzyme and the substrate Suc-Gly-Gly-phenylalanine-p-nitroanilide (SGGPNA) were dissolved in the buffer at concentrations of 1 mg/mL. To each well were added 100 µL of buffer, 10 µL of enzyme, and 10 µL of sample. The plate was placed in the spectrophotometer at 37 °C. After 5 min, 100 µL of substrate solution was added to each well, and the plate was placed in the spectrophotometer for the kinetic measurement of the absorbance intensity over 30 min at a wavelength of 405 nm.

The conditions of data set [1]: HPLC mobile phase 0.1% TFA/MeCN, six degradation products from TFA catalyzed hydrolysis of the glutamine and Ahp residues, confirmed by LC-MS of the crude extract.

By IC50 is commonly meant the concentration at which inhibition is half-maximal. High values mean weaker potency, low ones greater potency. The compound `CC(C)C[C@H]1C(=O)N(C)[C@@H](Cc2ccc(O)cc2)C(=O)N[C@@H](C(C)C)C(=O)O[C@H](C)[C@H](NC(=O)[C@H](Cc2ccc(O)cc2)NC(=O)[C@@H](O)Cc2ccc(O)cc2)C(=O)N[C@@H](CCC(N)=O)C(=O)N[C@H]2CC[C@@H](O)N1C2=O` [Micropeptin TR1058 (1)] had an IC50 against chymotrypsin of 6.78 µM. In addition, the “Stability under the isolation conditions” value in data set [1] was “extremely unstable”.

The record behind these values is PMC5742831, “Inhibitors of Serine Proteases from a Microcystis sp. Bloom Material Collected from Timurim Reservoir, Israel” (Marine Drugs, 2017).
